Data from US4827004A, “Isoprene derivatives” (Hoffmann-La Roche Inc., priority 1986, dated 1989).
Like-named read-outs stand apart in the source and are kept apart here.

Assays:
[1] = test system: mucous membrane of the stomach; assay: ethanol test (mucosa-protective activity; ethanol-induced gastric lesions); format: in vivo, male rats; details: Rattus norvegicus, po, read-out: Ethanol Test ID 50
Description: The experimental procedure described hereinafter was used to determine the muscosa-protective property:
The oral administration of absolute ethanol to male rats in a dosage of 1 ml per rat leads within 1 hour to bloody lesions of the mucous membrane of the stomach. Various dosages of the substances to be tested (suspended in 0.125% carboxymethylcellulose) or of the vehicle alone (control) are administered to the rats orally (1 ml per rat) 30 minutes prior to the treatment with ethanol. One hour after the administration of the ethanol the animals are killed, their stomachs are investigated for the presence of lesions and the number and the total dimension of such lesions are determined. The ID50 is that dosage of a test substance which reduces by 50% the number of lesions in comparison to the control group.
(§1) In the following Table there are given for a series of representative compounds of formula I the results of the testing with respect to their mucosa-protective activity ("ethanol test") and to their gastric acid secretion-inhibiting activity. Moreover, this Table contains data concerning the acute toxicity (LD50 in the case of single oral administration to mice).

gastric acid secretion = assay: gastric acid secretion-inhibiting activity (pylorus ligation according to Shay et al.); format: in vivo, male rats; details: Rattus norvegicus, read-out: Gastric acid secretion-inhibition, ID 50
Description: The test procedure described hereinafter was used to determine the gastric acid secretion-inhibiting activity:
The pylorus of male rats is ligated under slight ether narcosis in accordance with Shay et al. [Gastroenterology 5, 43 (1945)]. The substances to be tested, suspended in 0.5% carboxymethylcellulose, are administered intraduodenally. Control animals are treated only with the vehicle. Five hours after the ligation the animals are killed, the volume and acidity of their gastric juice are determined and the values obtained are compared with those of control animals. The ID50 is that dosage of a test substance which brings about a 50% decrease of the secretion in comparison to the control animals.
as §1

[2] = acute toxicity (single oral administration); details: mouse, in vivo, read-out: Toxicity LD 50
From the text: Representative compounds of formula I were investigated with respect to their mucosa-protective and gastric acid secretion-inhibiting properties as well as to their toxicity.
as §1

[3] = 30 minutes before ethanol, dosage reducing number of lesions by 50% vs control, male rats
[4] = intraduodenal, 5 hours after pylorus ligation, 50% decrease of secretion vs control, male rats
[5] = p.o., single oral administration to mice

Compound	ED50 [1, 3]	ED50 (gastric acid secretion; [4])	LD50 ([2]; po)	LD50 [2, 5]	ED50 [1]	ED50 (gastric acid secretion; 5 h)
C=C(C)C(=O)CC/C(C)=C/CC/C(C)=C/C=NO (mixture of isomers) [T, (2E,6E)-3,7,11-trimethyl-10-oxo-2,6,11-dodecatrienal (E/Z)-oxime]	7.8 mg/kg	9.3 mg/kg	–	–	–	–
C#CC(CC/C(C)=C/CC/C(C)=C/CO)=NOC (mixture of isomers) [U, (6E,10E)-12-hydroxy-6,10-dimethyl-6,10-dodecadien-1-yn-3-one (E/Z)-O-methyl oxime]	7.9 mg/kg	43.9 mg/kg	1000 to 2000 mg/kg	–	–	–
CC=CC(O)CC/C(C)=C/CC/C(C)=C/CO (mixture of isomers) [V, (2E,6E,11(E/Z))-3,7-dimethyl-2,6,11-tridecatriene-1,10-diol]	9.3 mg/kg	57.4 mg/kg	–	–	–	–
C#CC(=O)CC/C(C)=C/CC/C(C)=C/CO [A, (all-E)-12-hydroxy-6,10-dimethyl-6,10-dodecadien-1-yn-3-one]	0.55 mg/kg	2 mg/kg	1000 to 2000 mg/kg	–	–	–
C=CC(=O)CC/C(C)=C/CC/C(C)=C/CO [B, (all-E)-12-hydroxy-6,10-dimethyl-1,6,10-dodecatrien-3-one]	0.62 mg/kg	68.2 mg/kg	–	–	–	–
CC#CC(=O)CC/C(C)=C/CC/C(C)=C/CO [C, (all-E)-13-hydroxy-7,11-dimethyl-7,11-tridecadien-2-yn-4-one]	0.78 mg/kg	80.3 mg/kg	1000 to 2000 mg/kg	–	–	–
C/C=C/C(=O)CC/C(C)=C/CC/C(C)=C/CO [D, (all-E)-13-hydroxy-7,11-dimethyl-2,7,11-tridecatrien-4-one]	0.79 mg/kg	66 mg/kg	1000 to 2000 mg/kg	–	–	–
C#CC(CC/C(C)=C/CC/C(C)=C/CO)(OCC)OCC [E, (all-E)-10,10-diethoxy-3,7-dimethyl-2,6-dodecadien-11-yn-1-ol]	0.93 mg/kg	18.4 mg/kg	–	–	–	–
C=C(C)C(=O)CC/C(C)=C/CC/C(C)=C/CO [F, (all-E)-12-hydroxy-2,6,10-trimethyl-1,6,10-dodecatrien-3-one]	1.3 mg/kg	27.7 mg/kg	625 to 1250 mg/kg	–	–	–
C=C(C)C(=O)CC/C(C)=C/CC/C(C)=C/C=O [G, (all-E)-10-oxo-3,7,11-trimethyl-2,6,11-dodecatrienal]	1.8 mg/kg	62.4 mg/kg	1000 to 2000 mg/kg	–	–	–
C=C(C)C(=O)CC/C(C)=C\CC/C(C)=C\CO [H, (6Z,10Z)-12-hydroxy-2,6,10-trimethyl-1,6,10-dodecatrien-3-one]	1.8 mg/kg	57.7 mg/kg	–	2500 to 5000 mg/kg	–	–
C=C(C)C1(CC/C(C)=C/CC/C(C)=C/CO)OCCO1 [I, (all-E)-3,7-Dimethyl-9-[2-(1-methylvinyl)-1,3-dioxolan-2-yl]-2,6-nonadien-1-ol]	2.7 mg/kg	13.2 mg/kg	> 4000 mg/kg	–	–	–
C=C(C)C(=O)CC/C(C)=C/CC/C(C)=C/C(N)=O [J, (E,E)-3,7,11-trimethyl-10-oxo-2,6,11-dodecatrienamide]	–	–	–	1000 to 2000 mg/kg	3.4 mg/kg	63.9 mg/kg
CC(C)=CC(=O)CC/C(C)=C/CC/C(C)=C/CO [K, (all-E)-13-hydroxy-2,7,11-trimethyl-2,7,11-tridecatrien-4-one]	3.6 mg/kg	60.8 mg/kg	–	–	–	–
C=C(C)C(=O)CC/C(C)=C/CC/C(C)=C\CO [L, (6E,10Z)-12-hydroxy-2,6,10-trimethyl-1,6,10-dodecatrien-3-one]	4.4 mg/kg	73.4 mg/kg	–	625 to 1250 mg/kg	–	–
C=C(C)C(=O)CC/C(C)=C\CC/C(C)=C/CO [M, (6Z,10E)-12-hydroxy-2,6,10-trimethyl-1,6,10-dodecatrien-3-one]	4.5 mg/kg	62.7 mg/kg	–	2500 to 5000 mg/kg	–	–
C=C(C)C(O)CC/C(C)=C/CC/C(C)=C/CO (stereo not drawn) [N, (all-E)-3,7,11-trimethyl-2,6,11-dodecatriene-1,10-diol]	3.2 mg/kg	41.6 mg/kg	> 2000 mg/kg	–	–	–
C=C(C)C(O)CC/C(C)=C/CC/C(C)=C/C(=O)O (stereo not drawn) [O, (all-E)-10-hydroxy-3,7,11-trimethyl-2,6,11-dodecatrienoic acid]	26.8 mg/kg	48.8 mg/kg	1250 to 2500 mg/kg	–	–	–
C=C(C)C(=O)CC/C(C)=C/CC/C(C)=C/C(=O)O [P, (all-E)-10-Oxo-3,7,11-trimethyl-2,6,11-dodecatrienoic acid]	5 mg/kg	79.6 mg/kg	1250 to 2500 mg/kg	–	–	–
C=C(C)C(CC/C(C)=C/CC/C(C)=C/CO)(OC)OC [Q, (all-E)-10,10-dimethoxy-3,7,11-trimethyl-2,6,11-dodecatrien-1-ol]	5.3 mg/kg	4.7 mg/kg	> 5000 mg/kg	–	–	–
C=C(C)C(O)CC/C(C)=C/CC/C(C)=C/C=O (stereo not drawn) [R, (all-E)-10-hydroxy-3,7,11-trimethyl-2,6,11-dodecatrienal]	6.4 mg/kg	28.6 mg/kg	> 5000 mg/kg	–	–	–
C/C(=C\CO)CC/C=C(\C)CCC(=O)C#C[Si](C)(C)C [S, (all-E)-12-hydroxy-6,10-dimethyl-1-(trimethylsilyl)-6,10-dodecadien-1-yn-3-one]	–	–	–	–	6.5 mg/kg	46.9 mg/kg
